Measurements: US20250052985A1, “SYSTEM AND METHOD FOR QUANTITATIVE PHASE IMAGING FOR MULTI-PARAMETRIC SCREENING OF TUMOR THERAPY RESPONSE” (UNIVERSITY OF UTAH RESEARCH FOUNDATION, priority 2023, published 2025)
“And” between values parts separate entries of the source, which are not always exact repeats. Identical values can stand only once.

What was measured:
[1] = test system: primary tumor cells (Patient #1); assay: QPI on primary cells after two-week expansion, Patient #1; format: cell-based
Protocol: In some embodiments, the QPI microscope system 110 applies multiparametric QPI to primary cells from two clinical samples stored in cell bank at, for example, the Huntsman Cancer Institute plated after thawing from liquid nitrogen and CD45+ depleted to reduce the number of immune cells, as shown in FIG. 26.
For example, the primary cells are plated as a 2D monolayer in Clever's complete medium in a 96 well plate (e.g., the well-plate 105) and are allowed to acclimate to cell culture conditions for 18 h prior to dosing with treatments assigned to each patient by a physician. […] The image 3600 is a QPI image of primary cells from a direct from thaw patient derived sample. […] The graph 3610 is a histogram of cell mass used to computationally filter, using the electronic controller 155, for low mass cells (shown in red in the image 3600 and the graph 3605). By using a cutoff between the peaks at, for example, 72 pg, low mass cells can be isolated that are not growing and remove such cells from analysis. […] Using this cutoff, the electronic controller 155 measures the dose response for cells in each condition to determine the EC50 and DoR for each condition studied for the primary cells, as shown in the graph 3615. The graph 3615 is a dose response plot for primary cells treated with therapies assigned to the patient by a physician. […] In some embodiments, the electronic controller 155 determines a drug response in cells from patient derived samples. For example, the electronic controller 155 determines the drug response in therapy treatment samples from patient derived samples.
In some embodiments, both samples are expanded from primary cells in 2D culture using optimized ex vivo culture conditions for 2 weeks, changing media every 3 days to further purify the tumor cells, as shown in a workflow 3700 of FIG. 27.

[2] = test system: MCF-7 cells; assay: cells; conditions: for Max Asymptote / Min Asymptote: MCF-7, 4-parameter Hill fit of mean SGR vs concentration, one line per replicate; for Hill Slope: MCF-7, Hill fit; for DoR QPI: depth of response; for ToR 20 μM: time of response at 20 μM
Excerpt: (§1) In some embodiments, breast cancer cell lines are imaged, representing diverse clinical subtypes, summarized in Table 2 below, using a QPI microscope (FIG. 1A) based on differential phase contrast (DPC) microscopy and phase reconstruction via a QPI microscope system. DPC is used for image acquisition and phase reconstruction because DPC's flexible design may be customized for high throughput phase measurements. […] As illustrated in the embodiment of FIG. 1A, a QPI microscope system 100 conducts assays in a 96-well plate (e.g., a well-plate 105) with 6-point dose response curves and up to five therapies in triplicate including solvent controls, summarized in Table 4 below. As described below, in reference to FIG. 1A, a growth response of cells is measured noninvasively using QPI via a QPI microscope system 110 before being assayed using a CTG reader 115.
(§2) FIG. 1B illustrates a timeline plot 200 showing two plates (e.g., two, separate well-plates 105) set up in parallel to measure cell viability. With reference to FIG. 1B, two plates are set-up simultaneously for each experiment. A first plate 205 is incubated for 27 hours (h) post drug exposure prior to CTG analysis (3 h equilibration+24 h of imaging), which measures cell adenosine triphosphate (ATP) content as a surrogate for cell viability. A second plate 210 is imaged for 72 h after 3 h equilibration (e.g., 75 h) and followed by CTG. […] The imaging locations are imaged for 72 h, as shown by images 1700-1715 of FIG. 7.
(§3) In some embodiments, a dose-dependent change in growth, as indicated by a change in the rate of mass accumulation or loss, is a parameter that can be extracted from QPI dose-response data. […] Individual specific growth rate measurements are indicated by points in the distribution of the graph 1200 of FIG. 2A. Blue is indicative of the DMSO control and red is indicative of doxorubicin. The black outline is a kernel density function fit to the distribution of specific growth rates for each condition (e.g., *p<0.05, **p<0.01). In some embodiments, the average SGR of each condition is fit to a sigmoid dose-response curve using a Hill equation. For example, computed logistic fit parameters using a 4-parameter Hill model via the QPI microscope system 110 for all conditions are summarized in Tables 5-8 below. To determine if there is a response, as illustrated by FIG. 2B, the QPI microscope system 110 tests goodness of fit, adjusts for degrees of freedom using an F-test at significance p<0.01 by comparison to a flat line, as an indicator of no response. For cases with a better fit to the Hill equation, the 4-parameter Hill curve may be used by the QPI microscope system 110 to determine the EC50, a measure of sensitivity to therapy because it represents the effective concentration at which 50% of the cells respond to therapy, as illustrated by FIG. 10. […] A 4-parameter Hill curve is fit to each dose response plot to extract the depth of response and EC50 for each cell/drug pair. A flat line represents no response due to failure of the F-test to reject the null hypothesis that the logistic fit is indistinguishable from a flat line. […] Each color indicates a different drug or therapy used.

[3] = test system: BT-474 cells; assay: cells; conditions: for ToR 20 μM: time of response at 20 μM; for Hill Slope: BT-474, Hill fit; for EC50: Homo sapiens
Excerpt: as §1, §2, §3

[4] = test system: MCF-7 cells; assay: CellTiter-Glo (CTG) ATP viability assay, MCF-7; format: cell-based
Protocol: (§4) CTG (e.g., read by the CTG reader 115) is a cell viability assay that quantifies the amount of ATP present at the end of an experiment as an indicator of the number of live cells. The electronic controller 155 measures ATP content in each condition as a readout by a luminescent signal, which is normalized by the luminescence of the control (e.g., a control well) to determine cell viability relative to on-plate controls. In some embodiments, the CTG assay is performed by first removing 100 μL of media from each well on the well-plate 105, which is then replaced with an equal amount of CellTiter-Glo reagent (e.g., Promega, G7572). Assayed plates may be shaken at 500 RPM for 20 minutes and allowed to rest for 10 minutes. In some instances, 100 μL of volume from each well is transferred to a white 96-well plate (e.g., Perkin Elmer, 6005680). The electronic controller 155 collects luminescence data from each well using an Envision plate reader (e.g., Perkin Elmer) and normalized against the solvent control to measure ATP content. The electronic controller 155 fits a 4-parameter hill curve to the dose response to determine the EC50 and depth of response.

[5] = test system: MDA-MB-231 cells; assay: Quantitative phase imaging (QPI) growth response, MDA-MB-231; format: cell-based; design: DoR QPI: scale not given here; ToR 20 μM: unit not given here
Excerpt: as §1, §2, §3

[6] = test system: BT-474 cells; assay: CellTiter-Glo (CTG) ATP viability assay, BT-474; format: cell-based; conditions: for Min Asymptote: BT-474, Hill fit of luminescence normalized to solvent control, one line per replicate; for EC50: Homo sapiens
Protocol: as §4

[7] = 72 h QPI, MDA-MB-231, 4-parameter Hill fit of mean SGR vs concentration, one line per replicate
[8] = 72 h QPI, BT-474, 4-parameter Hill fit of mean SGR vs concentration, one line per replicate

SMILES: C=C1C[C@@H]2CC[C@@]34C[C@H]5O[C@H]6[C@@H](O3)[C@H]3O[C@H](CC[C@@H]3O[C@H]6[C@H]5O4)CC(=O)C[C@@H]3[C@@H](OC)[C@@H](C[C@H](O)CN)O[C@H]3C[C@H]3O[C@@H](CC[C@@H]1O2)C[C@@H](C)C3=C [eribulin]
- overall response relative to doxorubicin or gemcitabine ([1]; Patient #1, concentration just above the EC50, normalized mass over time): lesser overall response
- DoR relative to the other therapies tested ([1]; Patient #1, dose response plots): lower DoR
- growth rate after the first day ([1]; Patient #1, rest of the experiment): approximately 0.0012 h−1

SMILES: N.N.O=C([O-])C1(C(=O)[O-])CCC1.[Pt+2] [Carboplatin]
- Max Asymptote ([2]; 72 h QPI): 0.007047 and 0.01142
- Min Asymptote ([2]; 72 h QPI): 0.01994 and 0.02292
- Hill Slope ([2]; 72 h QPI): 3.7715 and 2.34
- DoR QPI ([2]; MCF-7 cell line): 0.6
- ToR 20 μM ([2]; MCF-7 cell line): 18.1
- EC50 ([2]; read-out: EC50, QPI, MCF-7 cell line, QPI growth rate): 14.2 µM
- ToR 20 μM ([3]; BT-474 cell line): 38.7
- Hill Slope ([4]; 72 h CTG, MCF-7, Hill fit): 3.126 and 5.114
- log10(EC50) ([4]; 72 h CTG, MCF-7, Hill fit): −1.201 and −1.172
- Min Asymptote ([4]; 72 h CTG, MCF-7, Hill fit of luminescence normalized to solvent control, one line per replicate): 0.5048 (2×) and 0.6498
- EC50 ([4]; MCF-7 cell line, CellTiter-Glo, read-out: EC50, CTG (converted)): 15.5 µM
- DoR CTG ([4]; MCF-7 cell line, depth of response, CellTiter-Glo): 0.4
- Max Asymptote [5, 7]: 0.01609 and 0.02303 and 0.02092
- Min Asymptote [5, 7]: 0.02861 and 0.03045 and 0.02714
- growth rate and heterogeneity over time ([5]; MDA-MB-231, 20 μM): decrease in growth rate with little effect on heterogeneity relative to the control
- growth rate and heterogeneity as concentration increases ([5]; MDA-MB-231, FIG. 22): decrease in growth rate and heterogencity simultaneously
- EC50 ([5]; MDA-MB-231 cell line, QPI growth rate, read-out: EC50, QPI): 9.1 µM
- DoR QPI ([5]; MDA-MB-231 cell line, depth of response, QPI): 0.3
- ToR 20 μM ([5]; MDA-MB-231 cell line, time of response at 20 μM): 18.3

SMILES: Nc1ccn([C@@H]2O[C@H](CO)[C@@H](O)C2(F)F)c(=O)n1 [gemcitabine]
- EC50 compared with eribulin ([1]; Patient #1): lower EC50 than eribulin

SMILES: CS(=O)(=O)CCNCc1ccc(-c2ccc3ncnc(Nc4ccc(OCc5cccc(F)c5)c(Cl)c4)c3c2)o1 [Lapatinib]
- Hill Slope ([6]; 24 h CTG, BT-474, Hill fit): 0.4575
- Min Asymptote ([6]; 24 h CTG): 0.2926
- Hill Slope ([6]; 72 h CTG, BT-474, Hill fit): 0.6736 and 1.021
- log10(EC50) ([6]; 72 h CTG, BT-474, Hill fit): 0.04318
- Min Asymptote ([6]; 72 h CTG): 0.3102 and 0.4062 (2×)
- DoR CTG ([6]; BT-474 cell line, depth of response, CellTiter-Glo): 0.6
- EC50 ([6]; BT-474, 24 h, 24 h CTG, BT-474, Hill fit, read-out: log10(EC50) (converted)): 165 µM
- EC50 ([6]; BT-474, BT-474 cell line, CellTiter-Glo, read-out: EC50, CTG): 1.7 µM
- type of response (cytostatic/cytotoxic) [2]: cytostatic response
- Max Asymptote ([2]; 24 h QPI): 0.02919
- Min Asymptote ([2]; 24 h QPI): 0.0206
- Hill Slope ([2]; 24 h QPI): 1.4871
- Max Asymptote ([2]; 72 h QPI): 0.01659
- Min Asymptote ([2]; 72 h QPI): 0.02661
- Hill Slope ([2]; 72 h QPI): 1.4826
- EC50 ([2]; Homo sapiens, MCF7, 24 h, read-out: log10(EC50), 24 h QPI, MCF-7, Hill fit (converted), EC50 in μM per Table 1): 1.92 µM
- EC50 ([2]; Homo sapiens, MCF7, 72 h, read-out: log10(EC50), 72 h QPI, MCF-7, Hill fit (converted), EC50 in μM per Table 1): 1.8 µM
- EC50 ([2]; Homo sapiens, MCF7, MCF-7, QPI): ~1.5 µM
- EC50 ([2]; Homo sapiens, MCF7, read-out: EC50, QPI, MCF-7 cell line, QPI growth rate): 1.5 µM
- DoR QPI ([2]; MCF-7 cell line): 0.4
- ToR 20 μM ([2]; MCF-7 cell line): 38.2
- type of response (cytostatic/cytotoxic) [3]: cytotoxic response
- Max Asymptote ([3]; 24 h QPI, BT-474, 4-parameter Hill fit of mean SGR vs concentration, one line per replicate): 0.009114 and 0.01239 and 0.01012
- Hill Slope ([3]; 24 h QPI): 1.0728 and 1.0622 and 0.7683
- Max Asymptote [3, 8]: −0.005233 and −0.002968 and −0.002717
- Min Asymptote [3, 8]: 0.008681 and 0.009519 and 0.009646
- Hill Slope ([3]; 72 h QPI): 0.8265 and 1.1159 and 1.0735
- growth rate and heterogeneity as concentration increases ([3]; BT-474, FIG. 22): decrease in growth rate and heterogeneity
- DoR QPI ([3]; BT-474 cell line, depth of response, QPI): 1.4
- ToR 20 μM ([3]; BT-474 cell line): −1.0616
- ToR faster than in MCF-7 ([3]; BT-474 vs MCF-7): 60 h
- decrease in heterogeneity relative to MCF-7 ([3]; BT-474 vs MCF-7): 30%
- EC50 ([3]; BT-474, BT-474, QPI): ~1.5 µM
- EC50 ([3]; BT-474, read-out: EC50, QPI, BT-474 cell line, QPI growth rate): 1.6 µM
- EC50 ([3]; BT-474, read-out: EC50, SD, BT-474 cell line, EC50 of the standard deviation): 1.65 µM
